{"source": "patent US6696495B2", "about": "“Treatment of disorders secondary to organic impairments” (Snowden Pharmaceuticals, LLC, priority 1998, dated 2004)", "key": {"[1]": {"system": "Severe Atypical Psychosis", "experiment": "Case history 1, Sibutramine Patient No. 97", "format": "in vivo, human", "conditions": "sibutramine 10 mg orally three times a day, added to carbamazepine, quetiapine, valproic acid; person"}, "[2]": {"system": "Sexual Function, ADD, and Rage Outbursts", "experiment": "Case history 3, Sibutramine Patient No. 100", "format": "in vivo, human", "conditions": "sibutramine 10 mg twice a day"}, "[3]": {"system": "Sexual Obsessive-Compulsive Behavior, ADD and Executive Function", "experiment": "Case history 6, Sibutramine Patient No. 77", "format": "in vivo, human"}, "[4]": {"system": "Sexual Gender Choice Change", "experiment": "Case history 7, Sibutramine Patient No. 99", "format": "in vivo, human", "conditions": "sibutramine 10 mg every morning; person"}, "[5]": {"system": "Severe Post-Traumatic Stress Reaction", "description": "Finally, this patient was taken off of fluoxetine 20 mg when sibutramine treatment was initiated."}, "[6]": {"system": "Intracerebral Porencephalic Cyst With Oscillopsia", "experiment": "Case history 14, Sibutramine Patient No. 111", "format": "in vivo, human", "from_the_text": "14. Intracerebral Porencephalic Cyst With Oscillopsia (Problem No. 5) Sibutramine Patient No. 111\nA person suffered a severe head injury in 1976 with a fractured skull, coma, and an intracerebral (porencephalic) cyst caused by the traumatic blockage of their cerebral spinal fluid in their brain. This cyst was repaired surgically with a brain ventricular—jugular vein shunt. This had permitted them to work continuously with concomitant treatment with carbamazepine, valproic acid, and dextroamphetamine until early 1998 when they began to suffer severe attacks of bizarrely altered vision, dizziness, ataxia, and confusion. The attacks progressed to several times per week, lasting 4-24 hours in duration. […] There is no known treatment for these attacks and they were therefore unable to drive or work safely. They were placed on total disability. They were started on 10 mg of sibutramine as needed for these oscillopsia attacks. […] After 2 months at the 5 mg tid dosage, the patient again noted a recurrence of oscillopsia on a 2-3 times weekly basis."}, "[7]": {"system": "Reflex Sympathetic Dystrophy Syndrome (RSDS)", "experiment": "Case history 22", "format": "in vivo, human", "conditions": "sibutramine 10 mg. b.i.d. Person", "from_the_text": "22. Reflex Sympathetic Dystrophy Syndrome (RSDS)\nA person injured their left ankle 14 months prior to their initial visit. The left lower leg then became red and then black, hot, swollen, and extremely painful. RSD was diagnosed and multiple treatments were unsuccessful. After nine months the skin gradually sloughed and the limb turned cold but remained painful, especially to touch. The patient also noted profuse swelling of the affected left leg, a tremor of the left hand, and many visual-spatial problems characteristic of right cerebral dysfunction. They were declared totally disabled. […] This enabled them to discontinue their other medication."}, "[8]": {"system": "Institutionalization Syndrome", "experiment": "Case history 25", "format": "in vivo, human", "from_the_text": "25. The Symptoms Due to Institutionalization Syndrome, Also Known As Concentration Camp Syndrome or Survivors Syndrome.\nA person was diagnosed with Institutionalization Syndrome and had been in and out of hospitals for 25 years."}, "[9]": {"system": "Reflex Sympathetic Dystrophy Syndrome (RSDS); Complex Regional Pain Syndrome (CRPS)", "experiment": "Case history 27", "format": "in vivo, human"}, "[10]": {"system": "Chronic Psychosis and Tardive Dyskinesia", "experiment": "Case history 28", "format": "in vivo, human", "description": "28. Chronic Psychosis and Tardive Dyskinesia\nThey were committed to a Psychiatric Hospital multiple times and was treated with multiple neuroleptic medication from which they have developed Tardive Dyskinesia. They were administered 15 mg sibutramine a day which had immediate effects, in less then one hour the improvement was noticed by them and others. […] They continue to take sibutramine along with 15 mg of Zyprexa daily."}, "[11]": {"system": "Tourette's Tics, Asocial Behavior, and Relief of Hyposexuality", "conditions": "sibutramine 5 mg three times a day"}, "[12]": {"system": "Fibromyalgia—Chronic Fatigue Syndrome"}}, "data": [{"smiles": "CC(C)CC(N(C)C)C1(c2ccc(Cl)cc2)CCC1.Cl", "note": "(stereo not shown) [sibutramine, N,N-dimethyl-1-[1-(4-chlorophenyl)cyclobutyl]-3-methylbutylamine hydrochloride]", "values": [{"measurement": "hallucinations, confusion, paranoia, and anxiety", "setting": "[1]", "value": "marked decrease in hallucinations, confusion, paranoia, and anxiety"}, {"measurement": "concentration and anger outbursts", "setting": "[2]", "value": "able to concentrate better and had fewer and less severe anger outbursts"}, {"measurement": "sexual drive and interest", "setting": "[2]; person", "value": "an increase in their sexual drive and interest"}, {"measurement": "concentration, organization, sexual obsessive-compulsive problems", "setting": "[3]; sibutramine 10 mg every morning, then 5 mg three times a day by mouth, person", "value": "could concentrate, organize, and no longer had the sexual obsessive-compulsive problems"}, {"measurement": "duration of effects of each dose", "setting": "[3]; sibutramine by mouth", "value": "about five"}, {"measurement": "sexual interest", "setting": "[4]", "value": "an increased interest in sex generally, but for the first time this interest included females as well as males"}, {"measurement": "depression", "setting": "[5]; human, in vivo", "value": "became severely depressed despite the relief from PTSD"}, {"measurement": "PTSD symptoms and sedation at lower dosage", "setting": "[5]; less than 1 mg once a day", "value": "provided relief again from their PTSD symptoms but without the sedation"}, {"measurement": "side effects", "setting": "[5]; one-half of the smallest capsule (5 mg), deficiency in P-450 cytochrome system enzymes", "value": "produced drowsiness, sugar craving, and weight gain"}, {"measurement": "PTSD reaction to thunder", "setting": "[5]; sibutramine 10 mg in the morning, person", "value": "completely oblivious of their former psychotic fear of thunder"}, {"measurement": "symptoms after sibutramine was stopped", "setting": "[5]; stopped after one and a half months", "value": "rapid return of the fear of thunder, sound and light sensitivity, exaggerated startle reflex, headaches, and nightmares of life and death situations"}, {"measurement": "oscillopsia attacks", "setting": "[6]; 10 mg of sibutramine as needed, person", "value": "appeared to help"}, {"measurement": "recurrence of oscillopsia", "setting": "[6]; after 2 months at 5 mg tid", "value": "2-3 times weekly"}, {"measurement": "oscillopsia attacks in the next four weeks", "setting": "[6]; sibutramine 5 mg three times daily", "value": "only one such attack"}, {"measurement": "oscillopsia attacks", "setting": "[6]; sibutramine 10 mg tid", "value": "absence of attacks"}, {"measurement": "cognition and pain", "setting": "[7]", "value": "rapidly became cognitive and had pain relief"}, {"measurement": "course since treatment began", "setting": "[8]; four months", "value": "continued improvement of their symptoms"}, {"measurement": "symptoms of Institutionalization Syndrome", "setting": "[8]; sibutramine 15 mg once a day", "value": "relieved their symptoms within a few minutes"}, {"measurement": "time to pain relief", "setting": "[9]; 15 mg capsule of sibutramine, child", "value": "≤ 45", "unit": "min"}, {"measurement": "toe and function", "setting": "[9]; 15 mg once a day, within 2 weeks", "value": "their toe became normal, and normal function was regained"}, {"measurement": "pain and symptoms after restart", "setting": "[9]; back on 15 mg once a day", "value": "their pain level decreased significantly within one hour and their symptoms disappeared"}, {"measurement": "foot pain", "setting": "[9]; first 15 mg capsule", "value": "dramatically better, completely relieved of pain"}, {"measurement": "symptoms off sibutramine", "setting": "[9]; taken off for one day", "value": "all the previous symptoms reappeared"}, {"measurement": "emotion and paranoia", "setting": "[10]; 15 mg sibutramine a day, with Zyprexa", "value": "emotional for the first time and diminishing their paranoia greatly"}, {"measurement": "time to noticed improvement", "setting": "[10]; 15 mg sibutramine a day, person", "value": "one hour"}, {"measurement": "Tardive Dyskinesia", "setting": "[10]; after the first week", "value": "his Tardive Dyskinesia improved"}, {"measurement": "ADHD", "setting": "[11]", "value": "his ADHD improved"}, {"measurement": "communication and social skills", "setting": "[11]", "value": "their communication and social skills improved"}, {"measurement": "motor and vocal tics, obsessive compulsive component", "setting": "[11]; child", "value": "the motor and vocal tics associated with Tourette's Disease were decreased as well as the obsessive compulsive component"}, {"measurement": "sleep", "setting": "[12]; first night after sibutramine", "value": "difficulty in getting to sleep that first night"}, {"measurement": "alertness and concentration", "setting": "[12]; sibutramine 5 mg tid p.o.", "value": "became alert and able to concentrate"}, {"measurement": "fatigue and energy", "setting": "[12]; sibutramine 5 mg tid p.o.", "value": "their fatigue diminished and their energy increased substantially"}, {"measurement": "pain points", "setting": "[12]; sibutramine 5 mg tid p.o.", "value": "their pain points were still tender but that the burning sensation at these points had abated within 4 days"}, {"measurement": "time to response after the first 5 mg capsule", "setting": "[12]; sibutramine 5 mg tid p.o. Person", "value": "≤ 2", "unit": "h"}]}]}
